Test results published in patent US8835428B2, “Diacylglycerol acyltransferase inhibitors” (Piramal Enterprises Limited, priority 2008, dated 2014).

biological target: T1, hDGAT1 (Homo sapiens, UniProt O75907); experiment: In-vitro DGAT1 assay (hDGAT1 microsomes from Sf9 cells, 14C oleoyl CoA, triglyceride formation); type: biochemical; details: At 1 μM
T1 construct: host or cells: Sf9 insect cells (baculovirus); microsomal preparation
T1 sequence (O75907 1-488): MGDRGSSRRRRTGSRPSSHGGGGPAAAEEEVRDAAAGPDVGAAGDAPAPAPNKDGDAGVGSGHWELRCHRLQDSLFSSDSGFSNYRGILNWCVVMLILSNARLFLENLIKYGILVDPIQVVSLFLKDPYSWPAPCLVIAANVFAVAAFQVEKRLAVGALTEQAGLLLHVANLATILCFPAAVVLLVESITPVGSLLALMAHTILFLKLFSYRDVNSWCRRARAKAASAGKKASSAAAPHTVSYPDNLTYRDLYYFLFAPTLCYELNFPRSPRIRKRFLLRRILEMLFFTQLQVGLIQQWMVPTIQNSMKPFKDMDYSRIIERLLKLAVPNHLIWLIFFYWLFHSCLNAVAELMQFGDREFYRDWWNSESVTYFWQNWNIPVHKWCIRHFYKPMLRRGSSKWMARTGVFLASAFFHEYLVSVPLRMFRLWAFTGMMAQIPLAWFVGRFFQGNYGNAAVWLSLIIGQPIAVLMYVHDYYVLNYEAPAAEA
Summary of the method: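 Human DGAT1 in baculovirus-infected Sf9 microsomes (2.5–10 μg), [14C]oleoyl-CoA with 409.5, 1228.5 or 1638 μM 1,2-dioleoyl-sn-glycerol, Tris-HCl pH 7.4 buffer with BSA. Compounds screened at 10, 5 and 1 μM in duplicate. Reaction 10 min at 37 °C; heptane-extracted [14C]triglyceride counted by scintillation.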

| % inhibition of hDGAT1 | inhibition at 1 µM | Compound |
| --- | --- | --- |
| +++ (>75% Inhibition ≦100) | – | CC(C)C(NC(=O)c1cc(-c2ccc(NC(=O)Nc3ccc(OC(F)(F)F)c(Cl)c3)cc2)no1)C(=O)O (centres unmarked) [Example 289, (3-(4-(3-(3-chloro-4-(trifluoromethoxy)phenyl)ureido)phenyl)isoxazole-5-carboxamido)-3-methylbutanoic acid] |
| – | 75 to 100% | CC(C)C(NC(=O)c1cc(-c2ccc(NC(=O)Nc3ccccc3-c3ccccc3)cc2)no1)C(=O)O (centres unmarked) [Example 291, 2-(3-(4-(3-Biphenyl-2-ylureido)phenyl)isoxazole-5-carboxamido)-3-methylbutanoic acid] |
| – | 75 to 100% | CC(C)C(NC(=O)c1cc(-c2ccc(NC(=O)Nc3ccc(C4CCCCC4)cc3)cc2)no1)C(=O)O (centres unmarked) [Example 293, 2-(3-(4-(3-(4-cyclohexylphenyl)ureido)phenyl)isoxazole-5-carboxamido)-3-methylbutanoic acid] |
| – | 50 to 75% | C=C(NC(=O)c1cc(-c2ccc(NC(=O)Nc3ccccc3F)cc2)no1)C(=O)O [Example 302, 2-(3-(4-(3-(2-Fluorophenyl)ureido)phenyl)isoxazole-5-carboxamido) acrylic acid] |
| + (>0% Inhibition ≦50) | – | C=C(NC(=O)c1cc(-c2ccc(NC(=O)Nc3ccc(C)cc3)cc2)no1)C(=O)OC [Example 303, Methyl 2-(3-(4-(3-p-tolylureido)phenyl)isoxazole-5-carboxamido) acrylate] |
| – | 50 to 75% | C=C(NC(=O)c1cc(-c2ccc(NC(=O)Nc3ccc(C)cc3)cc2)no1)C(=O)O [Example 304, 2-(3-(4-(3-p-tolylureido)phenyl)isoxazole-5-carboxamido)acrylic acid] |
| – | 50 to 75% | COC(=O)[C@H](C(C)C)N(C)C(=O)c1cc(-c2ccc(NC(=O)Nc3ccc(F)cc3)cc2)no1 [Example 307, (S)-methyl 2-(3-(4-(3-(4-fluorophenyl)ureido)phenyl)-N-methylisoxazole-5-carboxamido)-3-methylbutanoate] |
| – | 50 to 75% | CC(C)[C@@H](C(=O)O)N(C)C(=O)c1cc(-c2ccc(NC(=O)Nc3ccc(F)cc3)cc2)no1 [Example 308, (S)-2-(3-(4-(3-(4-fluorophenyl)ureido)phenyl)-N-methylisoxazole-5-carboxamido)-3-methylbutanoic acid] |
| – | 50 to 75% | COC(=O)[C@H](C(C)C)N(C)C(=O)c1cc(-c2ccc(NC(=O)Nc3cccc(C(F)(F)F)c3)cc2)no1 [Example 309, (S)-methyl 3-methyl-2-(N-methyl-3-(4-(3-(3-(trifluoromethyl)phenyl)ureido)phenyl)isoxazole-5-carboxamido)butanoate] |
| – | 50 to 75% | CC(C)[C@@H](C(=O)O)N(C)C(=O)c1cc(-c2ccc(NC(=O)Nc3cccc(C(F)(F)F)c3)cc2)no1 [Example 310, (S)-3-methyl-2-(N-methyl-3-(4-(3-(3-(trifluoromethyl)phenyl)ureido)phenyl)isoxazole-5-carboxamido)butanoic acid] |
| – | 0 to 50% | COC(=O)[C@H](NC(=O)c1cc(-c2ccc(NS(=O)(=O)c3ccccc3F)cc2)no1)C(C)C [Example 315, (R)-methyl 2-(3-(4-(2-fluorophenylsulfonamido)phenyl)isoxazole-5-carboxamido)-3-methylbutanoate] |
| – | 0 to 50% | CC(C)[C@@H](NC(=O)c1cc(-c2ccc(NS(=O)(=O)c3c(F)cccc3F)cc2)no1)C(=O)O [Example 317, (R)-2-(3-(4-(2,6-Difluorophenylsulfonamido)phenyl)isoxazole-5-carboxamido)-3-methylbutanoic acid] |
| – | 0 to 50% | COC(=O)[C@H](NC(=O)c1cc(-c2ccc(NS(=O)(=O)c3ccc(C(F)(F)F)cc3)cc2)no1)C(C)C [Example 318, (R)-methyl 3-methyl-2-(3-(4-(4-(trifluoromethyl)phenylsulfonamido)phenyl)isoxazole-5-carboxamido)butanoate] |
| – | 0 to 50% | CC(C)[C@@H](NC(=O)c1cc(-c2ccc(NS(=O)(=O)c3ccc(C(F)(F)F)cc3)cc2)no1)C(=O)O [Example 319, (R)-3-methyl-2-(3-(4-(4-(trifluoromethyl)phenylsulfonamido)phenyl)isoxazole-5-carboxamido)butanoic acid] |
| – | 0 to 50% | CC(C)C(NC(=O)c1cc(-c2ccc(OCc3ccccc3C(F)(F)F)cc2)no1)C(=O)O (centres unmarked) [Example 330, 3-Methyl-2-(3-(4-(2-(trifluoromethyl)benzyloxy)phenyl)isoxazole-5-carboxamido)butanoic acid] |
| + (>0% Inhibition ≦50) | – | CC(C)C(NC(=O)c1cc(-c2ccc(OCc3ccc(F)cc3F)cc2)no1)C(=O)O (centres unmarked) [Example 332] |

More lines, now with the values behind:

| Compound | % inhibition of hDGAT1 | inhibition at 1 µM |
| --- | --- | --- |
| Cc1cc(OC(F)(F)F)ccc1NC(=O)Nc1ccc(-c2cc(C(=O)NC(C(=O)O)C(C)C)on2)cc1 (centres unmarked) [Example 295, 3-methyl-2-(3-(4-(3-(2-methyl-4-(trifluoromethoxy)phenyl)ureido)phenyl)isoxazole-5-carboxamido)butanoic acid] | – | 75 to 100% |
| CC(C)C(NC(=O)c1cc(-c2ccc(NC(=O)c3ccc(C(C)(C)C)cc3)cc2)no1)C(=O)O (centres unmarked) [Example 297, 2-(3-(4-(4-tert-butylbenzamido)phenyl)isoxazole-5-carboxamido)-3-methylbutanoic acid] | – | 75 to 100% |
| COC(=O)[C@H](C(C)C)N(C)C(=O)c1cc(-c2ccc(NC(=O)Nc3ccccc3F)cc2)no1 [Example 305, (S)-Methyl 2-(3-(4-(3-(2-fluorophenyl)ureido)phenyl)-N-methylisoxazole-5-carboxamido)-3-methylbutanoate] | – | 50 to 75% |
| CC(C)[C@@H](C(=O)O)N(C)C(=O)c1cc(-c2ccc(NC(=O)Nc3ccccc3F)cc2)no1 [Example 306, (S)-2-(3-(4-(3-(2-fluorophenyl)ureido)phenyl)-N-methylisoxazole-5-carboxamido)-3-methylbutanoic acid] | – | 50 to 75% |
| COC(=O)[C@H](C(C)C)N(C)C(=O)c1cc(-c2ccc(NC(=O)NC3CCCCC3)cc2)no1 [Example 311, (S)-methyl 2-(3-(4-(3-cyclohexylureido)phenyl)-N-methylisoxazole-5-carboxamido)-3-methylbutanoate] | – | 50 to 75% |
| CC(C)[C@@H](C(=O)O)N(C)C(=O)c1cc(-c2ccc(NC(=O)NC3CCCCC3)cc2)no1 [Example 312, (S)-2-(3-(4-(3-cyclohexylureido)phenyl)-N-methylisoxazole-5-carboxamido)-3-methylbutanoic acid] | – | 0 to 50% |
| CC(C)[C@@H](C(=O)O)N(C)C(=O)c1cc(-c2ccc(NC(=O)Nc3ccccc3Cl)cc2)no1 [Example 314, (S)-2-(3-(4-(3-(2-chlorophenyl)ureido)phenyl)-N-methylisoxazole-5-carboxamido)-3-methylbutanoic acid] | – | 50 to 75% |
| COC(=O)[C@H](NC(=O)c1cc(-c2ccc(NS(=O)(=O)c3c(F)cccc3F)cc2)no1)C(C)C [Example 316, (R)-Methyl 2-(3-(4-(2,6-difluorophenylsulfonamido)phenyl)isoxazole-5-carboxamido)-3-methylbutanoate] | – | 0 to 50% |
| CC(C)[C@@H](NC(=O)c1cc(-c2ccc(NS(=O)(=O)c3cc(F)cc(F)c3)cc2)no1)C(=O)O [Example 320, (R)-2-(3-(4-(3,5-Difluorophenylsulfonamido)phenyl)isoxazole-5-carboxamido)-3-methylbutanoic acid] | – | 0 to 50% |
| CC(C)C(NC(=O)c1cc(-c2ccc(OCc3ccccc3)cc2)no1)C(=O)O (centres unmarked) [Example 322, 2-(3-(4-(Benzyloxy)phenyl)isoxazole-5-carboxamido)-3-methylbutanoic acid] | – | 0 to 50% |
| CC(C)C(NC(=O)c1cc(-c2ccc(OCc3cccc(C(F)(F)F)c3)cc2)no1)C(=O)O (centres unmarked) [Example 326, 3-Methyl-2-(3-(4-(3-(trifluoromethyl)benzyloxy)phenyl)isoxazole-5-carboxamido)butanoic acid] | – | 0 to 50% |
| COC(=O)C(NC(=O)c1cc(-c2ccc(OCc3ccccc3C(F)(F)F)cc2)no1)C(C)C (centres unmarked) [Example 329, Methyl 3-methyl-2-(3-(4-(2-(trifluoromethyl)benzyloxy)phenyl)isoxazole-5-carboxamido)butanoate] | – | 0 to 50% |

same assay, conditions: At 5 μM

| inhibition at 5 µM | Compound |
| --- | --- |
| 50 to 75% | COC(=O)[C@H](CO)NC(=O)c1cc(-c2ccc(NC(=O)Nc3ccccc3F)cc2)no1 [Example 298, (S)-Methyl 2-(3-(4-(3-(2-fluorophenyl)ureido)phenyl)isoxazole-5-carboxamido)-3-hydroxypropanoate] |
| 50 to 75% | O=C(Nc1ccc(-c2cc(C(=O)N[C@@H](CO)C(=O)O)on2)cc1)Nc1ccccc1F [Example 299, (S)-2-(3-(4-(3-(2-Fluorophenyl)ureido)phenyl)isoxazole-5-carboxamido)-3-hydroxypropanoic acid] |
| 50 to 75% | CC(C)[C@H](NC(=O)c1cc(-c2ccc(NC(=O)Nc3ccccc3F)cc2)no1)C(=O)OC(C)(C)C [Example 300, (S)-tert-butyl 2-(3-(4-(3-(2-fluorophenyl)ureido)phenyl)isoxazole-5-carboxamido)-3-methylbutanoate] |
| 50 to 75% | C=C(NC(=O)c1cc(-c2ccc(NC(=O)Nc3ccccc3F)cc2)no1)C(=O)OC [Example 301, Methyl 2-(3-(4-(3-(2-fluorophenyl)ureido)phenyl)isoxazole-5-carboxamido)acrylate] |
